Measured values as given in ChEMBL document CHEMBL3046569 (Med Chem Res, 2011).

Tests used:
[1] = Therapeutic index, ratio of IC50 for human H9 cells to EC50 for HIV1; type: cell-based; conditions: for pTI: h9
[2] = system: Human immunodeficiency virus 1; test: Antiviral activity against Human immunodeficiency virus 1 infected human H9 cells assessed as inhibition of viral replication; type: functional, organism-based; conditions: Human immunodeficiency virus 1, H9; read-out: pEC50 (converted)

SMILES | pTI [1] | EC50 [2] | selectivity ratio ([1]; H9 cells, read-out: Ratio IC50/EC50)
CC(C)[C@@H]1CC[C@]2(C(=O)OCc3ccccc3)CC[C@]3(C)[C@H](CC[C@@H]4[C@@]5(C)CC[C@H](OC(=O)CC(C)(C)C(=O)O)C(C)(C)[C@@H]5CC[C@]43C)[C@@H]12 | -1.748 | 230 nM | –
C=C(C)[C@@H]1CC[C@]2(COC(=O)CCC(=O)O)CC[C@]3(C)[C@H](CC[C@@H]4[C@@]5(C)CC[C@H](OC(=O)CCC(=O)O)C(C)(C)[C@@H]5CC[C@]43C)[C@@H]12 | -0.969 | 3800 nM | –
CC(CC(=O)O)CC(=O)OC[C@]12CC[C@@H](C(C)C)[C@@H]1[C@H]1CC[C@@H]3[C@@]4(C)CC[C@H](OC(=O)CC(C)CC(=O)O)C(C)(C)[C@@H]4CC[C@@]3(C)[C@]1(C)CC2 (stereo partly specified) | -2.512 | 59 nM | –
CC(C)[C@@H]1CC[C@]2(COC(=O)CC(C)(C)CC(=O)O)CC[C@]3(C)[C@H](CC[C@@H]4[C@@]5(C)CC[C@H](OC(=O)CC(C)(C)CC(=O)O)C(C)(C)[C@@H]5CC[C@]43C)[C@@H]12 | -3.353 | 4.7 nM | –
C=C(C)[C@@H]1CC[C@]2(C(=O)O)CC[C@]3(C)[C@H](CC[C@@H]4[C@@]5(C)CC[C@H](OC(=O)C(C)(C)CC(=O)O)C(C)(C)[C@@H]5CC[C@]43C)[C@@H]12 | -0.826 | 2700 nM | –
C=C(C)[C@@H]1CC[C@]2(C(=O)O)CC[C@]3(C)[C@H](CC[C@@H]4[C@@]5(C)CC[C@H](OC(=O)CC(C)(C)CC(=O)O)C(C)(C)[C@@H]5CC[C@]43C)[C@@H]12 | – | 2.3 nM | –
CC(C)[C@@H]1CC[C@]2(C(=O)O)CC[C@]3(C)[C@H](CC[C@@H]4[C@@]5(C)CC[C@H](OC(=O)COCC(=O)O)C(C)(C)[C@@H]5CC[C@]43C)[C@@H]12 | -3.37 | 5.6 nM | –
C=C(CO)[C@@H]1CC[C@]2(CO)CC[C@]3(C)[C@H](CC[C@@H]4[C@@]5(C)CC[C@H](O)C(C)(C)[C@@H]5CC[C@]43C)[C@@H]12 [30-HYDROXY-BETULIN] | -0.447 | 50800 nM | –
CC(C)[C@@H]1CC[C@]2(C(=O)O)CC[C@]3(C)[C@H](CC[C@@H]4[C@@]5(C)CC[C@H](OC(=O)C(C)(C)CC(=O)O)C(C)(C)[C@@H]5CC[C@]43C)[C@@H]12 | -1.14 | 560 nM | –
C=C(C)[C@@H]1CC[C@]2(C(=O)O)CC[C@]3(C)[C@H](CC[C@@H]4[C@@]5(C)CC[C@H](OC(=O)CCCC(=O)O)C(C)(C)[C@@H]5CC[C@]43C)[C@@H]12 | -2.465 | 44 nM | –
C=C(C)[C@@H]1CC[C@]2(COC(=O)CC3(CC(=O)O)CCCC3)CC[C@]3(C)[C@H](CC[C@@H]4[C@@]5(C)CCC(=O)C(C)(C)[C@@H]5CC[C@]43C)[C@@H]12 | -0.477 | 4300 nM | –
C=C(C)[C@@H]1CC[C@]2(C(=O)O)CC[C@]3(C)[C@H](CC[C@@H]4[C@@]5(C)CC[C@H](O)C(C)(C)[C@@H]5CC[C@]43C)[C@@H]12 (stereo in doubt; 8) [BETULINIC ACID] | -1.146 | 899 nM | –
C=C(C)[C@@H]1CC[C@]2(NOC(=O)CCC(C)(C)CC(=O)O)CC[C@]3(C)[C@H](CC[C@@H]4[C@@]5(C)CC/C(=N\OC(=O)CCC(C)(C)CC(=O)O)C(C)(C)[C@@H]5CC[C@]43C)[C@@H]12 | -0.532 | 4570 nM | –
CC(C)[C@@H]1CC[C@]2(C(=O)O)CC[C@]3(C)[C@H](CC[C@@H]4[C@@]5(C)CC[C@H](OC(=O)CC(C)(C)C(=O)O)C(C)(C)[C@@H]5CC[C@]43C)[C@@H]12 | -4.146 | 0.3 nM | –
CC(C)[C@@H]1CC[C@]2(C(=O)OC(=O)N3CCOCC3)CC[C@]3(C)[C@H](CC[C@@H]4[C@@]5(C)CC[C@H](O)C(C)(C)[C@@H]5CC[C@]43C)[C@@H]12 | -0.114 | 26000 nM | –
C=C(C)[C@@H]1CC[C@]2(/C=N/O)CC[C@]3(C)[C@H](CC[C@@H]4[C@@]5(C)CC/C(=N\O)C(C)(C)[C@@H]5CC[C@]43C)[C@@H]12 [BETULIN-3,28-DIOXIME] | -0.708 | 1070 nM | –
C=C(C)[C@@H]1CC[C@]2(CO)CC[C@]3(C)[C@H](CC[C@@H]4[C@@]5(C)CC[C@@H](O)C(C)(C)[C@@H]5CC[C@]43C)[C@@H]12 [3-EPI-BETULIN] | -0.532 | 3620 nM | –
C=C(C)[C@@H]1CC[C@]2(COC(=O)CC(C)CC(=O)O)CC[C@]3(C)[C@H](CC[C@@H]4[C@@]5(C)CC[C@H](OC(=O)CC(C)CC(=O)O)C(C)(C)[C@@H]5CC[C@]43C)[C@@H]12 (stereo partly specified) | -3.725 | 3.9 nM | –
CC(C)[C@@H]1CC[C@]2(C(=O)OCc3ccccc3)CC[C@]3(C)[C@H](CC[C@@H]4[C@@]5(C)CC[C@H](OC(=O)CCCC(=O)O)C(C)(C)[C@@H]5CC[C@]43C)[C@@H]12 | -1.279 | 500 nM | –
CC(C)CC(=O)O[C@H]1CC[C@]2(C)[C@H]3CC[C@@H]4[C@H]5[C@H](C(C)C)CC[C@]5(C(=O)O)CC[C@@]4(C)[C@]3(C)CC[C@H]2C1(C)C | -1.748 | 1500 nM | –

SMILES | pTI [1] | EC50 [2] | selectivity ratio ([1]; H9 cells, read-out: Ratio IC50/EC50)
CC(C)[C@@H]1CC[C@]2(C(=O)OC(=O)OCN(C)C)CC[C@]3(C)[C@H](CC[C@@H]4[C@@]5(C)CC[C@H](O)C(C)(C)[C@@H]5CC[C@]43C)[C@@H]12 | 0 | 6590 nM | –
CC(C)[C@@H]1CC[C@]2(COC(=O)CCCC(=O)O)CC[C@]3(C)[C@H](CC[C@@H]4[C@@]5(C)CC[C@H](OC(=O)CCCC(=O)O)C(C)(C)[C@@H]5CC[C@]43C)[C@@H]12 | -1.23 | 1600 nM | –
C=C(C)[C@@H]1CC[C@]2(COC(=O)CC3(CC(=O)O)CCCC3)CC[C@]3(C)[C@H](CC[C@@H]4[C@@]5(C)CC[C@H](OC(=O)CC6(CC(=O)O)CCCC6)C(C)(C)[C@@H]5CC[C@]43C)[C@@H]12 | -2.427 | 76.9 nM | –
C=C(COC(C)=O)[C@@H]1CC[C@]2(COC(C)=O)CC[C@]3(C)[C@H](CC[C@@H]4[C@@]5(C)CC[C@H](OC(C)=O)C(C)(C)[C@@H]5CC[C@]43C)[C@@H]12 | -0.398 | 10200 nM | –
C=C(C)[C@@H]1CC[C@]2(C(=O)NCCCCCCCC(=O)N[C@@H](CC(C)C)[C@@H](O)CC(=O)O)CC[C@]3(C)[C@H](CC[C@@H]4[C@@]5(C)CC[C@H](O)C(C)(C)[C@@H]5CC[C@]43C)[C@@H]12 | -1.544 | 330 nM | –
C=C(C)[C@@H]1CC[C@]2(C(=O)O)CC[C@]3(C)[C@H](CC[C@@H]4[C@@]5(C)CC[C@H](O)C(C)(C)[C@@H]5CC[C@]43C)[C@@H]12 (stereo in doubt; 1) [BETULINIC ACID] | -0.969 | – | –
C=C(C)[C@@H]1CC[C@]2(COC(=O)CC3(CC(=O)O)CCCC3)CC[C@]3(C)[C@H](CC[C@@H]4[C@@]5(C)CC[C@H](O)C(C)(C)[C@@H]5CC[C@]43C)[C@@H]12 | -0.785 | 2100 nM | –
CCC(C)(CC(=O)O)CC(=O)OC[C@]12CC[C@@H](C(C)C)[C@@H]1[C@H]1CC[C@@H]3[C@@]4(C)CC[C@H](OC(=O)CC(C)(CC)CC(=O)O)C(C)(C)[C@@H]4CC[C@@]3(C)[C@]1(C)CC2 (stereo partly specified) | -2.395 | 75 nM | –
C=C(COC(=O)CC(C)(C)CC(=O)O)[C@@H]1CC[C@]2(COC(=O)CC(C)(C)CC(=O)O)CC[C@]3(C)[C@H](CC[C@@H]4[C@@]5(C)CC[C@H](OC(=O)CC(C)(C)CC(=O)O)C(C)(C)[C@@H]5CC[C@]43C)[C@@H]12 | -2.59 | 45 nM | –
CC(C)[C@@H]1CC[C@]2(C(=O)OCc3ccccc3)CC[C@]3(C)[C@H](CC[C@@H]4[C@@]5(C)CC[C@H](O)C(C)(C)[C@@H]5CC[C@]43C)[C@@H]12 | -0.255 | 100000 nM | –
C=C(C)[C@@H]1CC[C@]2(COC(=O)CC(C)(C)CC(=O)O)CC[C@]3(C)[C@H](CC[C@@H]4[C@@]5(C)CC[C@H](O)C(C)(C)[C@@H]5CC[C@]43C)[C@@H]12 | -0.892 | 3600 nM | –
C=C(C)[C@@H]1CC[C@]2(COC(=O)CC(C)(CC)CC(=O)O)CC[C@]3(C)[C@H](CC[C@@H]4[C@@]5(C)CC[C@H](OC(=O)CC(C)(CC)CC(=O)O)C(C)(C)[C@@H]5CC[C@]43C)[C@@H]12 (stereo partly specified) | -3.541 | 5.3 nM | –
CC(C)[C@@H]1CC[C@]2(C(=O)O)CC[C@]3(C)[C@H](CC[C@@H]4[C@@]5(C)CC[C@H](OC(=O)C67CCC(C)(C(=O)O6)C7(C)C)C(C)(C)[C@@H]5CC[C@]43C)[C@@H]12 (stereo partly specified) | -0.301 | 500 nM | –
C=C(C)[C@@H]1CC[C@]2(C(=O)O)CC[C@]3(C)[C@H](CC[C@@H]4[C@@]5(C)CC[C@H](OC(=O)COCC(=O)O)C(C)(C)[C@@H]5CC[C@]43C)[C@@H]12 | -3.069 | 10 nM | –
C=C(C)[C@@H]1CC[C@]2(CN)CC[C@]3(C)[C@H](CC[C@@H]4[C@@]5(C)CC[C@H](N)C(C)(C)[C@@H]5CC[C@]43C)[C@@H]12 | -0.708 | 1070 nM | –
CC(C)[C@@H]1CC[C@]2(C(=O)OC(=O)OCN(C)C)CC[C@]3(C)[C@H](CC[C@@H]4[C@@]5(C)CCC(=O)C(C)(C)[C@@H]5CC[C@]43C)[C@@H]12 | -0.544 | 3800 nM | –
C=C(C)[C@@H]1CC[C@]2(CNC(=O)CC(C)(C)CC(=O)O)CC[C@]3(C)[C@H](CC[C@@H]4[C@@]5(C)CC[C@H](NC(=O)CC(C)(C)CC(=O)O)C(C)(C)[C@@H]5CC[C@]43C)[C@@H]12 | -1.564 | 570 nM | –
CC(C)[C@@H]1CC[C@]2(C(=O)O)CC[C@]3(C)[C@H](CC[C@@H]4[C@@]5(C)CC[C@H](OC(=O)CC(C)(C)CC(=O)O)C(C)(C)[C@@H]5CC[C@]43C)[C@@H]12 | -3.007 | 5.7 nM | –
C=C(C)[C@@H]1CC[C@]2(CO)CC[C@]3(C)[C@H](CC[C@@H]4[C@@]5(C)CC[C@H](O)C(C)(C)[C@@H]5CC[C@]43C)[C@@H]12 [BETULIN] | -0.279 | – | 1.9
